From PubChem BioAssay AID1918941 (Molecular Pharmacology Branch, DTP, NCI, 2023)

Test system: SW 1271 complex spheroids, viability
Assay: Anticancer human tumor SW 1271 cell line growth inhibition [LSD1];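 further: spheroids exposed to agents for 7 days before luminescence read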;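 on viability, T/C: 100% = DMSO vehicle control viability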
Conditions: for IC50: curve of first compound; for viability, T/C: stronger effect = lower value
In short: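 Drug combinations with the LSD1 inhibitor iadademstat tested on tumor cells co-cultured as spheroids with endothelial cells and mesenchymal stem cells. Concentrations descended in half-log increments from clinical Cmax or 10 microM.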

[1] = second compound 0.1 µM, first compound 0.0316 µM
[2] = second compound 0.1 µM, first compound 0.1 µM
[3] = second compound 0.1 µM, first compound 0.316 µM
[4] = second compound 0.1 µM, first compound 1 µM
[5] = second compound 0.1 µM, first compound 3.16 µM
[6] = second compound 0.1 µM, first compound 10 µM
[7] = second compound 0.316 µM, first compound 0.0316 µM
[8] = second compound 0.316 µM, first compound 0.1 µM
[9] = second compound 0.316 µM, first compound 0.316 µM
[10] = second compound 0.316 µM, first compound 1 µM
[11] = second compound 0.316 µM, first compound 3.16 µM
[12] = second compound 0.316 µM, first compound 10 µM
[13] = second compound 1 µM, first compound 0.0316 µM
[14] = second compound 1 µM, first compound 0.1 µM
[15] = second compound 1 µM, first compound 0.316 µM
[16] = second compound 1 µM, first compound 1 µM
[17] = second compound 1 µM, first compound 3.16 µM
[18] = second compound 1 µM, first compound 10 µM
[19] = second compound 3.16 µM, first compound 0.0316 µM
[20] = second compound 3.16 µM, first compound 0.1 µM
[21] = second compound 3.16 µM, first compound 0.316 µM
[22] = second compound 3.16 µM, first compound 1 µM
[23] = second compound 3.16 µM, first compound 3.16 µM
[24] = second compound 3.16 µM, first compound 10 µM
[25] = second compound 10 µM, first compound 0.0316 µM
[26] = second compound 10 µM, first compound 0.1 µM
[27] = second compound 10 µM, first compound 0.316 µM
[28] = second compound 10 µM, first compound 1 µM
[29] = second compound 10 µM, first compound 3.16 µM
[30] = second compound 10 µM, first compound 10 µM
[31] = second compound 0.1 µM, first compound 0.00316 µM
[32] = second compound 0.1 µM, first compound 0.01 µM
[33] = second compound 0.316 µM, first compound 0.00316 µM
[34] = second compound 0.316 µM, first compound 0.01 µM
[35] = second compound 1 µM, first compound 0.00316 µM
[36] = second compound 1 µM, first compound 0.01 µM
[37] = second compound 3.16 µM, first compound 0.00316 µM
[38] = second compound 3.16 µM, first compound 0.01 µM
[39] = second compound 10 µM, first compound 0.00316 µM
[40] = second compound 10 µM, first compound 0.01 µM

Row | SMILES | IC50 (second compound 0.1 µM) [µM] | IC50 (second compound 0.316 µM) [µM] | IC50 (second compound 1 µM) [µM] | IC50 (second compound 3.16 µM) [µM] | IC50 (second compound 10 µM) [µM] | viability, T/C [1] [%] | viability, T/C [2] [%] | viability, T/C [3] [%] | viability, T/C [4] [%] | viability, T/C [7] [%] | viability, T/C [8] [%] | viability, T/C [9] [%] | viability, T/C [10] [%] | viability, T/C [13] [%] | viability, T/C [14] [%] | viability, T/C [15] [%] | viability, T/C [16] [%] | viability, T/C [19] [%] | viability, T/C [20] [%] | viability, T/C [21] [%] | other results
1 | CC(C)c1c(-c2ccccc2)nc2c(C#N)c[nH]n2c1=O + NC1CCC(NC2CC2c2ccccc2)CC1 | > 10 | > 10 | > 10 | > 10 | > 10 | 85.7 | 80.3 | 79.1 | 82.8 | 75.2 | 89.2 | 77.9 | 74.2 | 74.1 | 74.8 | 75.5 | 80.1 | 76.6 | 73.1 | 71.5 | viability, T/C [5]: 71.1%; viability, T/C [6]: 69.4%; viability, T/C [11]: 68.9%; viability, T/C [12]: 54.7%; viability, T/C [17]: 68.8%; viability, T/C [18]: 59.4%; viability, T/C [22]: 68.8%; viability, T/C [23]: 71.9%; viability, T/C [24]: 64.2%; viability, T/C [25]: 66.7%; viability, T/C [26]: 60.5%; viability, T/C [27]: 70.1%; viability, T/C [28]: 65.5%; viability, T/C [29]: 65.8%; viability, T/C [30]: 46.5%
2 | CC1COCCN1c1cc(-c2ccnn2C)c2ccnc(-c3ccn[nH]3)c2n1 (stereo not given) + NC1CCC(NC2CC2c2ccccc2)CC1 | 0.0595 | 0.103 | 0.0553 | 0.0554 | 0.0473 | 56.3 | 42.7 | 42.2 | 29.8 | 58.2 | 42.7 | 48.8 | 28.6 | 56.2 | 39.6 | 44.3 | 30.3 | 55.8 | 44.8 | 42 | viability, T/C [31]: 59.3%; viability, T/C [32]: 76.7%; viability, T/C [33]: 71.4%; viability, T/C [34]: 71.2%; viability, T/C [35]: 68.5%; viability, T/C [36]: 62%; viability, T/C [37]: 68.4%; viability, T/C [38]: 56.4%; viability, T/C [22]: 31.4%; viability, T/C [39]: 78.1%; viability, T/C [40]: 66.9%; viability, T/C [25]: 53.1%; viability, T/C [26]: 41.8%; viability, T/C [27]: 38.5%; viability, T/C [28]: 29.9%
3 | COc1ccc([C@@H](O)c2cc(-c3ncnc4cc(N5CCOCC5)ccc34)c(F)cc2Cl)nn1 + NC1CCC(NC2CC2c2ccccc2)CC1 | 0.811 | 0.542 | 0.608 | 0.836 | 0.436 | 92 | 84.7 | 62.1 | 49.4 | 82.1 | 70.6 | 58.2 | 40.8 | 75 | 65.3 | 65.2 | 38.7 | 68 | 65.2 | 66.2 | viability, T/C [5]: 29.2%; viability, T/C [6]: 21%; viability, T/C [11]: 30.3%; viability, T/C [12]: 21.4%; viability, T/C [17]: 27.5%; viability, T/C [18]: 21.6%; viability, T/C [22]: 46.3%; viability, T/C [23]: 25.5%; viability, T/C [24]: 16.7%; viability, T/C [25]: 89.4%; viability, T/C [26]: 60%; viability, T/C [27]: 50.4%; viability, T/C [28]: 49%; viability, T/C [29]: 26.6%; viability, T/C [30]: 14.9%
4 | O=C(C=Cn1cnc(-c2cc(C(F)(F)F)cc(C(F)(F)F)c2)n1)NNc1cnccn1 + NC1CCC(NC2CC2c2ccccc2)CC1 | 0.135 | 0.189 | 0.229 | 0.215 | 0.203 | 72.9 | 50.2 | 42.8 | 24.6 | 81.3 | 53.5 | 46 | 27.4 | 88.9 | 62.4 | 47 | 18.5 | 92.1 | 54.3 | 48.3 | viability, T/C [31]: 86.6%; viability, T/C [32]: 91.2%; viability, T/C [33]: 84.5%; viability, T/C [34]: 77.3%; viability, T/C [35]: 90.5%; viability, T/C [36]: 101%; viability, T/C [37]: 81.9%; viability, T/C [38]: 79.3%; viability, T/C [22]: 23.7%; viability, T/C [39]: 87.5%; viability, T/C [40]: 86.6%; viability, T/C [25]: 79.1%; viability, T/C [26]: 59%; viability, T/C [27]: 44.8%; viability, T/C [28]: 29.5%
